Molecular target: Histone deacetylase 3 (Homo sapiens, UniProt O15379)
Experiment: Allosteric inhibition of C-terminal His-tagged recombinant human HDAC3 expressed in Sf9 cells pre-incubated for 2 hrs before acetylated lysine-aminomethyl coumarin-BOC addition and measured after 2 hrs by fluorescence based assay

Histone deacetylase 3, sequence (O15379 whole entry): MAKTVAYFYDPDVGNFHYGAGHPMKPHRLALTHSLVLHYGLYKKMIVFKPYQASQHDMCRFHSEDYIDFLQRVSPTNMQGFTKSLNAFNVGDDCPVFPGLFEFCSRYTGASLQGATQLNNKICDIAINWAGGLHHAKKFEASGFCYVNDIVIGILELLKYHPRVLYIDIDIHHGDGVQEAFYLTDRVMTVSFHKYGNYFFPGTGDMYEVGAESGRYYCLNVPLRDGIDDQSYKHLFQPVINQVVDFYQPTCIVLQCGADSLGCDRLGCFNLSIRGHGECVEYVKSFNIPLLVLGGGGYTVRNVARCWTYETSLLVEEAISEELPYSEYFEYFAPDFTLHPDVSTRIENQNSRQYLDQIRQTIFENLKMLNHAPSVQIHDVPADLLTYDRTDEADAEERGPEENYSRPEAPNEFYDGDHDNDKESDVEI

- IC50: > 10 µM
SMILES: CCCCCCCCCCNNC(=O)c1ccc(CNC(=O)c2ccccc2)cc1 [N-(4-(2-decylhydrazine-1-carbonyl)benzyl)benzamide]
